Experimental data from ChEMBL document CHEMBL1201862, “PubChem BioAssay data set” (2004).
Calls of active or inactive are those of the source. Cut-off read from the data, not from the text of the source: actives have a measured IC50 and inactives only a lower limit.

Molecular target: Envelope glycoprotein gp160 (Human immunodeficiency virus 1, UniProt Q6QLK5)
Test: cell-free HIV fusion peptide-binding blockers – biochemical, uHTS, fluorescence dequenching, […] (AID 1986)

Sequence of Envelope glycoprotein gp160 (Q6QLK5 whole entry, the tested form may be a part): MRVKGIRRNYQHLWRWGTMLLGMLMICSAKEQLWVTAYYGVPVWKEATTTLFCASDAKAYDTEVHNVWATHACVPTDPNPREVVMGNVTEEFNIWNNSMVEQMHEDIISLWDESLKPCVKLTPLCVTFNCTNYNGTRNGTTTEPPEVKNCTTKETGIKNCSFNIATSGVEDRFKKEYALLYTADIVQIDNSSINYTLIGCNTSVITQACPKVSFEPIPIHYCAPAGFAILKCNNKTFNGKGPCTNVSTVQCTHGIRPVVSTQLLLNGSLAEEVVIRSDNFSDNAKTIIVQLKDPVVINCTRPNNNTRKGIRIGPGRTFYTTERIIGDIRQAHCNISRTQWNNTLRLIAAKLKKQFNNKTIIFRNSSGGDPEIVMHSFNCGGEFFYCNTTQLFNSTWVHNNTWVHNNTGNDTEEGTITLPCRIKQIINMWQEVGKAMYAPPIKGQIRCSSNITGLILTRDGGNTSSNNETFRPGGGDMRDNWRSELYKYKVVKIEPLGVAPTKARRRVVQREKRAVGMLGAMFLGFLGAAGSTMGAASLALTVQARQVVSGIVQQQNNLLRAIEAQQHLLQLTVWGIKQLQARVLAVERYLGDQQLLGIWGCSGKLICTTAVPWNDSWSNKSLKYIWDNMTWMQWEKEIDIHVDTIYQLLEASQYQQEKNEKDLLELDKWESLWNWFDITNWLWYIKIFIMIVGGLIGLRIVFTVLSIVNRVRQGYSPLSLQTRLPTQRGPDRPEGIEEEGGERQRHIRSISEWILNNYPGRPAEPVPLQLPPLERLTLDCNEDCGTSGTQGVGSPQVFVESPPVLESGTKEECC

SMILES | IC50
CCCCN1C(=O)/C(=C/C=C/c2ccco2)C(=O)NC1=S | 5.14 µM (active)
CC(/C=C1\SC(=S)N(CCCC(=O)Nc2ccc(C(=O)O)cc2)C1=O)=C\c1ccccc1 | 17.2 µM (active)
